According to patent US9683253B2, “Method and device for identifying cells” (IMEC, priority 2013, dated 2017):

How the values were obtained:
[1] = test system: MCF7 cells; assay type: cell-based
[2] = test system: PBMC; assay type: cell-based

## SLO
[1]
  dose dependence of change in Fc: the higher the dose, the bigger the change in the Fc
  recovered Fc versus native Fc: increases higher than the native Fc
[2]
  recovered Fc versus native Fc: drops to a lower value than the native Fc
